# Results: US20210400967A1, “COMPOSITIONS COMPRISING PYRIDINE CARBOXYLATE HERBICIDES WITH GLYPHOSATE OR GLUFOSINATE” (Corteva Agriscience LLC, priority 2018, published 2021)
# What was measured:
# Assay type in all cases: in vivo
# [1] = tested on: Brassica napus (winter rape); assay: Greenhouse postemergence herbicidal effect, winter rape (BRSNW); conditions: 20-22 d; for % visual injury: Example 1
# Source text: (§1) Greenhouse Trial Methodology—Evaluation of Postemergence Herbicidal Effect
# (§2) Seeds of the desired test plant species were planted in a 90:10% v/v (volume/volume) mixture of PRO-MIX® BX (Premier Tech Horticulture, Quakertown, Pa., USA) and PROFILE® GREENS GRADE™ (Profile Products LLC, Buffalo Grove, Ill., USA) planting mixture, which typically has a pH of 5.2 to 6.2 and an organic matter content of at least 50 percent, in plastic pots with a surface area of 103.2 square centimeters (cm^2). In some aspects, to ensure good germination and healthy plants, a fungicide treatment and/or other chemical or physical treatment was applied. The plants were grown for 7-36 days (d) in a greenhouse with an approximate 14-hour (h) photo-period which was maintained at about 23° C. during the day and 22° C. during the night. Nutrients and water were added on a regular basis and supplemental lighting was provided with overhead metal halide 1000-Watt lamps as necessary. The plants were employed for testing when they reached the second or third true leaf stage.
# (§3) Emulsifiable concentrates of each of each pyridine carboxylate herbicide (Compound A or Compound B) were prepared at 100 grams acid equivalent per liter (g ae/L). The emulsifiable concentrates also included a safener, cloquintocet-mexyl, at 120 grams active ingredient per liter (g ai/L). An aliquot of each emulsifiable concentrate was placed in a 25 mL glass vial and diluted with an aqueous mixture of 1.25% (v/v) ACTIROB® B esterified rapeseed oil (Bayer Crop Science, Research Triangle Park, N.C., USA) or MSO® Concentrate with LECI-TECH® methylated soybean oil (Loveland Products, Loveland, Colo., USA) to obtain concentrated stock solutions at the highest application rate for each herbicide, based upon a 12 milliliter (mL) application volume at a rate of 187 liters per hectare (L/ha). The concentrated stock solutions were further diluted with an aqueous mixture of 1.25% v/v ACTIROB® B or MSO® Concentrate with LECI-TECH® to obtain stock solutions at reduced application rates for each herbicide. Spray solutions of the herbicide combinations (Compound A or Compound B plus glyphosate or glufosinate) were prepared by adding weighed amounts or aliquots of the glyphosate or glufosinate to the stock solutions of Compound A or Compound B to form 12-mL spray solutions in two-way combinations.
# (§4) The spray solutions were applied to the plant material with an overhead Mandel track sprayer equipped with 8002E nozzles calibrated to deliver 187 L/ha over an application area of 0.503 square meters (m^2) at a spray height of 18 inches (43 centimeters (cm)) above the average plant canopy. Control plants were sprayed in the same manner with the solvent blank. All pyridine carboxylate herbicide (component a) application rates are given as “g ae/ha” and all glyphosate or glufosinate (component b) application rates are given as “g ai/ha.”
# (§5) The treated plants and control plants were placed in a greenhouse as described above and watered by sub-irrigation to prevent wash-off of the test compounds. After 20-22 d, the condition of the test plants as compared with that of the control plants was determined visually and scored on a scale of 0 to 100 percent where 0 corresponds to no injury and 100 corresponds to complete kill.
# [2] = tested on: Polygonum convolvulus (wild buckwheat); assay: Greenhouse postemergence herbicidal effect, wild buckwheat (POLCO); conditions: 20-22 d; for % visual injury: Example 1
# Source text: as §1, §2, §3, §4, §5
# [3] = tested on: Sinapis arvensis (wild mustard); assay: Greenhouse postemergence herbicidal effect, wild mustard (SINAR); conditions: 20-22 d; for % visual injury: Example 1
# Source text: as §1, §2, §3, §4, §5
# [4] = tested on: Salsola kali (Russian thistle); assay: Greenhouse postemergence herbicidal effect, Russian thistle (SASKR); conditions: 20-22 d; for % visual injury: Example 1
# Source text: as §1, §2, §3, §4, §5
# Kochia scoparia (kochia) = assay: Greenhouse postemergence herbicidal effect, kochia (KCHSC); conditions: 20-22 d; for % visual injury: Example 1
# Source text: as §1, §2, §3, §4, §5
# [5] = tested on: Chenopodium album L. (common lambsquarters); assay: Greenhouse postemergence herbicidal effect, common lambsquarters (CHEAL); conditions: 20-22 d; for % visual injury: Example 1
# Source text: as §1, §2, §3, §4, §5
# [6] = tested on: Amaranthus retroflexus (pigweed); assay: Greenhouse postemergence herbicidal effect, pigweed (AMARE); conditions: 20-22 d; for % visual injury: Example 1
# Source text: as §1, §2, §3, §4, §5
# [7] = tested on: Matricaria chamomilla (wild chamomile); assay: Greenhouse postemergence herbicidal effect, wild chamomile (MATCH); conditions: 20-22 d; for % visual injury: Example 1
# Source text: as §1, §2, §3, §4, §5
# [8] = tested on: Cirsium arvense (Canadian thistle); assay: Greenhouse postemergence herbicidal effect, Canadian thistle (CIRAR); conditions: 20-22 d; for % visual injury: Example 1
# Source text: as §1, §2, §3, §4, §5
# [9] = tested on: Triticum aestivum (spring wheat); assay: Greenhouse postemergence phytotoxicity on crop, spring wheat (TRZAS); conditions: 20-22 d; for % visual injury: Example 1
# Source text: as §1, §2, §3, §4, §5
# [10] = tested on: Hordeum vulgare (spring barley); assay: Greenhouse postemergence phytotoxicity on crop, spring barley (HORVS); conditions: 20-22 d; for % visual injury: Example 1
# Source text: as §1, §2, §3, §4, §5
# [11] = tested on: Viola tricolor (wild pansy); assay: Greenhouse postemergence herbicidal effect, wild pansy (VIOTR); conditions: Example 5, 20-22 d
# Source text: as §1, §2, §3, §4, §5
# [12] = tested on: Stellaria media (chickweed); assay: Greenhouse postemergence herbicidal effect, chickweed (STEME); conditions: Example 5, 20-22 d
# Source text: as §1, §2
# (§6) Emulsifiable concentrates of each of each pyridine carboxylate herbicide (Compound A or Compound B) were prepared at 100 grams acid equivalent per liter (g ae/L). The emulsifiable concentrates also included a safener, cloquintocet-mexyl, at 120 grams active ingredient per liter (g ai/L). […]
# as §5
# [13] = tested on: Echinochloa crus-galli (barnyardgrass); assay: Greenhouse postemergence herbicidal effect, barnyardgrass (ECHCG); conditions: Example 5, 20-22 d
# Source text: as §1, §2, §6, §5
# [14] = tested on: Euphorbia heterophylla (poinsettia); assay: Greenhouse postemergence herbicidal effect, poinsettia (EPHHL); conditions: Example 5, 20-22 d
# Source text: as §1, §2, §6, §5
# [15] = tested on: Sorghum vulgare (grain sorghum); assay: Greenhouse postemergence herbicidal effect, grain sorghum (SORVU); conditions: Example 5, 20-22 d
# Source text: as §1, §2, §6, §5
# [16] = tested on: Cyperus esculentus (nutsedge); assay: Greenhouse postemergence herbicidal effect, nutsedge (CYPES); conditions: Example 5, 20-22 d
# Source text: as §1, §2, §6, §5
# [17] = tested on: Rumex obtusifolius (broad-leaf dock); assay: Greenhouse postemergence herbicidal effect, broad-leaf dock (RUMOB); conditions: Example 5, 20-22 d
# Source text: as §1, §2, §6, §5
# [18] = tested on: Ipomoea hederacea (ivyleaf morningglory); assay: Greenhouse postemergence herbicidal effect, ivyleaf morningglory (IPOHE); conditions: Example 5, 20-22 d
# Source text: as §1, §2, §6, §5
# [19] = tested on: Helianthus annuus (common sunflower); assay: Greenhouse postemergence herbicidal effect, common sunflower (HELAN); conditions: Example 5, 20-22 d
# Source text: as §1, §2, §6, §5
# [20] = Example 2, Compound A 7.5 g ae/ha alone
# [21] = Example 2, Compound A 10 g ae/ha alone
# [22] = Example 6, Compound A 7.5 g ae/ha alone
# [23] = Example 6, Compound A 10 g ae/ha alone
# [24] = Example 5, Compound A 7.5 g ae/ha alone
# [25] = Example 5, Compound A 10 g ae/ha alone
smiles,measurement,setting,value
"N#CCOC(=O)c1nc(-c2ccc3cc[nH]c3c2F)c(F)c(N)c1Cl [Compound A, cyanomethyl 4-amino-3-chloro-5-fluoro-6-(7-fluoro-1H-indol-6-yl)pyridine-2-carboxylate]",% visual injury,[1]; Compound A 7.5 g ae/ha alone,35%
same,% visual injury,[1]; Compound A 10 g ae/ha alone,43%
same,"% visual injury, Obs",[1]; [20],35%
same,"% visual injury, Obs",[1]; [21],40%
same,"% visual injury, Obs",[1]; [22],35%
same,"% visual injury, Obs",[1]; [23],40%
same,% visual injury,[2]; Compound A 7.5 g ae/ha alone,78%
same,% visual injury,[2]; Compound A 10 g ae/ha alone,93%
same,"% visual injury, Obs",[2]; [20],30%
same,"% visual injury, Obs",[2]; [21],43%
same,"% visual injury, Obs",[2]; [24],83%
same,"% visual injury, Obs",[2]; [25],93%
same,"% visual injury, Obs",[2]; [22],30%
same,"% visual injury, Obs",[2]; [23],43%
same,% visual injury,[3]; Compound A 7.5 g ae/ha alone,88%
same,% visual injury,[3]; Compound A 10 g ae/ha alone,90%
same,"% visual injury, Obs",[3]; [20],83%
same,"% visual injury, Obs",[3]; [21],88%
same,"% visual injury, Obs",[3]; [22],83%
same,"% visual injury, Obs",[3]; [23],88%
same,% visual injury,[4]; Compound A 7.5 g ae/ha alone,60%
same,% visual injury,[4]; Compound A 10 g ae/ha alone,63%
same,"% visual injury, Obs",[4]; [20],60%
same,"% visual injury, Obs",[4]; [21],63%
same,"% visual injury, Obs",[4]; [22],60%
same,"% visual injury, Obs",[4]; [23],63%
same,% visual injury,Kochia scoparia (kochia); Compound A 7.5 g ae/ha alone,63%
same,% visual injury,Kochia scoparia (kochia); Compound A 10 g ae/ha alone,63%
same,"% visual injury, Obs",Kochia scoparia (kochia); [20],70%
same,"% visual injury, Obs",Kochia scoparia (kochia); [21],70%
same,"% visual injury, Obs",Kochia scoparia (kochia); [24],75%
same,"% visual injury, Obs",Kochia scoparia (kochia); [25],73%
same,"% visual injury, Obs",Kochia scoparia (kochia); [22],70%
same,"% visual injury, Obs",Kochia scoparia (kochia); [23],70%
same,% visual injury,[5]; Compound A 7.5 g ae/ha alone,88%
same,% visual injury,[5]; Compound A 10 g ae/ha alone,93%
same,"% visual injury, Obs",[5]; [20],75%
same,"% visual injury, Obs",[5]; [21],80%
same,"% visual injury, Obs",[5]; [22],75%
same,"% visual injury, Obs",[5]; [23],80%
same,% visual injury,[6]; Compound A 7.5 g ae/ha alone,78%
same,% visual injury,[6]; Compound A 10 g ae/ha alone,73%
same,"% visual injury, Obs",[6]; [20],90%
same,"% visual injury, Obs",[6]; [21],85%
same,"% visual injury, Obs",[6]; [22],90%
same,"% visual injury, Obs",[6]; [23],85%
same,% visual injury,[7]; Compound A 7.5 g ae/ha alone,20%
same,% visual injury,[7]; Compound A 10 g ae/ha alone,30%
same,"% visual injury, Obs",[7]; [20],10%
same,"% visual injury, Obs",[7]; [21],20%
same,"% visual injury, Obs",[7]; [22],10%
same,"% visual injury, Obs",[7]; [23],20%
same,% visual injury,[8]; Compound A 7.5 g ae/ha alone,30%
same,% visual injury,[8]; Compound A 10 g ae/ha alone,40%
same,"% visual injury, Obs",[8]; [20],40%
same,"% visual injury, Obs",[8]; [21],55%
same,"% visual injury, Obs",[8]; [24],40%
same,"% visual injury, Obs",[8]; [25],60%
same,"% visual injury, Obs",[8]; [22],40%
same,"% visual injury, Obs",[8]; [23],55%
same,% visual injury,[9]; Compound A 7.5 g ae/ha alone,0%
same,% visual injury,[9]; Compound A 10 g ae/ha alone,0%
same,"% visual injury, Obs",[9]; [20],0%
same,"% visual injury, Obs",[9]; [21],0%
same,"% visual injury, Obs",[9]; [22],0%
same,"% visual injury, Obs",[9]; [23],0%
same,% visual injury,[10]; Compound A 7.5 g ae/ha alone,0%
same,% visual injury,[10]; Compound A 10 g ae/ha alone,0%
same,"% visual injury, Obs",[10]; [20],0%
same,"% visual injury, Obs",[10]; [21],0%
same,"% visual injury, Obs",[10]; [22],0%
same,"% visual injury, Obs",[10]; [23],0%
same,"% visual injury, Obs",[11]; Compound A 7.5 g ae/ha alone,38%
same,"% visual injury, Obs",[11]; Compound A 10 g ae/ha alone,15%
same,"% visual injury, Obs",[12]; Compound A 7.5 g ae/ha alone,89%
same,"% visual injury, Obs",[12]; Compound A 10 g ae/ha alone,90%
same,"% visual injury, Obs",[13]; Compound A 7.5 g ae/ha alone,88%
same,"% visual injury, Obs",[13]; Compound A 10 g ae/ha alone,80%
same,"% visual injury, Obs",[14]; Compound A 7.5 g ae/ha alone,97%
same,"% visual injury, Obs",[14]; Compound A 10 g ae/ha alone,97%
same,"% visual injury, Obs",[15]; Compound A 7.5 g ae/ha alone,0%
same,"% visual injury, Obs",[15]; Compound A 10 g ae/ha alone,0%
same,"% visual injury, Obs",[16]; Compound A 7.5 g ae/ha alone,30%
same,"% visual injury, Obs",[16]; Compound A 10 g ae/ha alone,8%
same,"% visual injury, Obs",[17]; Compound A 7.5 g ae/ha alone,20%
same,"% visual injury, Obs",[17]; Compound A 10 g ae/ha alone,13%
same,"% visual injury, Obs",[18]; Compound A 7.5 g ae/ha alone,20%
same,"% visual injury, Obs",[18]; Compound A 10 g ae/ha alone,25%
same,"% visual injury, Obs",[19]; Compound A 7.5 g ae/ha alone,90%
same,"% visual injury, Obs",[19]; Compound A 10 g ae/ha alone,89%
